Drawing on patent publication US9242970B2 (ACTELION PHARMACEUTICALS LTD., priority 2010, dated 2016), this text covers IC50 for 35 molecules.

Structures are written as SMILES.

One assay deals with human orexin-1 receptor (Homo sapiens (Human), UniProt O43613). The experiment in a line: In vitro assay: intracellular calcium measurements (FLIPR), antagonistic activity. The format is cell-based. To be noted: CHO cells, 3 nM orexin-A, compound incubation 120 min; marked values are geometric means of n = 2-6; read-out: IC50 OX1.
For the next assay, the target named is human orexin-2 receptor (Homo sapiens (Human), UniProt O43614). Described as above. It counts as cell-based. To be noted: CHO cells, 3 nM orexin-A, compound incubation 120 min; marked values are geometric means of n = 2-6; read-out: IC50 OX2.
human orexin-2 receptor, sequence (O43614 whole entry): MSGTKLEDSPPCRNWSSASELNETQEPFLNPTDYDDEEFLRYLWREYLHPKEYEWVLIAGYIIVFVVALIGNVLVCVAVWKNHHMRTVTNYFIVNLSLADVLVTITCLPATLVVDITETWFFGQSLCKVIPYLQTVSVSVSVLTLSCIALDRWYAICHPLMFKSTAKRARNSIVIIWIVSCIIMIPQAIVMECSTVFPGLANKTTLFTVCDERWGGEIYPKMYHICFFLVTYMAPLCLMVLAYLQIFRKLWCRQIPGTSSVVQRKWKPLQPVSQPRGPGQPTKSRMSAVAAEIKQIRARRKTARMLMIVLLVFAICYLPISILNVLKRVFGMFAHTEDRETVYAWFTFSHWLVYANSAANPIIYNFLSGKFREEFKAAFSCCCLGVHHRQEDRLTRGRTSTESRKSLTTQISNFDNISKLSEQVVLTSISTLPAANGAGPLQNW

human orexin-1 receptor, sequence (O43613 whole entry): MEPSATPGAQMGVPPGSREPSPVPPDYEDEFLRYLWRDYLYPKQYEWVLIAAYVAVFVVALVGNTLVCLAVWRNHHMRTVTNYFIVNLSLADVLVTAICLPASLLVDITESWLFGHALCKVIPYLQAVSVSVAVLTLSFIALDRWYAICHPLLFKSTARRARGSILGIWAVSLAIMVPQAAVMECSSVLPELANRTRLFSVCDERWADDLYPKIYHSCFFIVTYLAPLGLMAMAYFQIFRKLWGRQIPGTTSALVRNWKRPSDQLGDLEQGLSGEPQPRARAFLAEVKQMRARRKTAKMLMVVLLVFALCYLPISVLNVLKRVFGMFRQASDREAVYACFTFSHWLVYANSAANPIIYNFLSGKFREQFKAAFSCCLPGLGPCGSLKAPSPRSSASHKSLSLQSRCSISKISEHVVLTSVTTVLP

For the molecule `COc1cccc(OC)c1C1CCCC(=O)N1Cc1cccc(-c2ncccn2)c1` (stereo not shown) [Example 29, 6-(2,6-dimethoxyphenyl)-1-(3-(pyrimidin-2-yl)benzyl)piperidin-2-one], the IC50 at human orexin-1 receptor was 14 nM; on human orexin-2 receptor, 28 nM.
For the molecule `COc1cccc(OC)c1C1CCCC(=O)N1Cc1ccc2oc3ccccc3c2c1` (stereo not shown) [Example 30, 1-(dibenzo[b,d]furan-2-ylmethyl)-6-(2,6-dimethoxyphenyl)piperidin-2-one], the IC50 on human orexin-1 receptor came out at 2 nM; at human orexin-2 receptor, 4 nM.
Turning to `COc1cccc(OC)c1C1CCCC(=O)N1Cc1nc2ccccc2s1` (stereo not shown) [Example 31, 1-(benzo[d]thiazol-2-ylmethyl)-6-(2,6-dimethoxyphenyl)piperidin-2-one], the IC50 worked out at 941 nM on human orexin-1 receptor and 858 nM on human orexin-2 receptor.
For the molecule `COc1cccc(OC)c1C1CCCC(=O)N1Cc1ccc2c(c1)c1ccccc1n2C` (stereo not shown) [Example 32, 6-(2,6-dimethoxyphenyl)-1-((9-methyl-9H-carbazol-3-yl)methyl)piperidin-2-one], the IC50 at human orexin-1 receptor is 50 nM; on human orexin-2 receptor, 132 nM.
Regarding `COc1cccc(OC)c1C1CCCC(=O)N1Cc1cccc(-c2noc(C)n2)c1` (stereo not shown) [Example 33, 6-(2,6-dimethoxyphenyl)-1-(3-(5-methyl-1,2,4-oxadiazol-3-yl)benzyl)piperidin-2-one], the IC50 at human orexin-1 receptor stood at 39 nM; on human orexin-2 receptor it was 50 nM.
Taken in the same sequence, the figures for `COc1cccc(OC)c1C1CCCC(=O)N1Cc1ccnc(N2CCCC2)c1` (stereo not shown) [Example 34, 6-(2,6-dimethoxyphenyl)-1-((2-(pyrrolidin-1-yl)pyridin-4-yl)methyl)piperidin-2-one] were 1050 nM and 2060 nM.
As for `COc1cccc(OC)c1C1CCCC(=O)N1Cc1csc(-c2ccccc2)n1` (stereo not shown) [Example 35, 6-(2,6-dimethoxyphenyl)-1-((2-phenylthiazol-4-yl)methyl)piperidin-2-one], the IC50 on human orexin-1 receptor was 28 nM; on human orexin-2 receptor it was 5 nM.
The matching figures for `COc1cccc(OC)c1C1CCCC(=O)N1Cc1ccnc(Br)c1` (stereo not shown) [Example 36, 1-((2-bromopyridin-4-yl)methyl)-6-(2,6-dimethoxyphenyl)piperidin-2-one]: 1570 nM and 1150 nM.
Consider `COc1cccc(OC)c1C1CCCC(=O)N1Cc1cccc(-c2ccccn2)c1F` (stereo not shown) [Example 37, 6-(2,6-dimethoxyphenyl)-1-(2-fluoro-3-(pyridin-2-yl)benzyl)piperidin-2-one], for which the IC50 on human orexin-1 receptor came to 72 nM; at human orexin-2 receptor, 64 nM.
The matching figures for `COc1cccc(OC)c1C1CCCC(=O)N1Cc1cccc(-c2ccccn2)n1` (stereo not shown) [Example 38, 1-([2,2′-bipyridin]-6-ylmethyl)-6-(2,6-dimethoxyphenyl)piperidin-2-one]: 153 nM and 87 nM.
As for `COc1cccc(OC)c1C1CCCC(=O)N1Cc1cccc(-c2nccs2)n1` (stereo not shown) [Example 39, 6-(2,6-dimethoxyphenyl)-1-((6-(thiazol-2-yl)pyridin-2-yl)methyl)piperidin-2-one], the values for the IC50 at human orexin-1 receptor and at human orexin-2 receptor were 179 nM and 147 nM, respectively.
The matching figures for `COc1cccc(OC)c1C1CCCC(=O)N1Cc1cc(-c2ccccn2)ccc1F` (stereo not shown) [Example 40, 6-(2,6-dimethoxyphenyl)-1-(2-fluoro-5-(pyridin-2-yl)benzyl)piperidin-2-one]: 75 nM and 696 nM.
For the molecule `COc1cccc(OC)c1C1CCCC(=O)N1Cc1ccc(F)c(-c2ccccn2)c1` (stereo not shown) [Example 41, 6-(2,6-dimethoxyphenyl)-1-(4-fluoro-3-(pyridin-2-yl)benzyl)piperidin-2-one], the figures for the IC50 on human orexin-1 receptor and at human orexin-2 receptor were 18 nM and 26 nM, respectively.
On to `COc1cccc(OC)c1C1CCCC(=O)N1Cc1cccc(-c2cncs2)c1` (stereo not shown) [Example 42, 6-(2,6-dimethoxyphenyl)-1-(3-(thiazol-5-yl)benzyl)piperidin-2-one], for which the concentration for half-maximal inhibition (IC50) on human orexin-1 receptor is 25 nM; on human orexin-2 receptor it was 17 nM.
The matching figures for `COc1cccc(OC)c1C1CCCC(=O)N1Cc1cccc(-c2ncc(C)s2)c1` (stereo not shown) [Example 43, 6-(2,6-dimethoxyphenyl)-1-(3-(5-methylthiazol-2-yl)benzyl)piperidin-2-one]: 6 nM and 6 nM.
Regarding `COc1cccc(OC)c1C1CCCC(=O)N1Cc1cccc(-n2nccn2)c1` (stereo not shown) [Example 44, 1-(3-(2H-1,2,3-triazol-2-yl)benzyl)-6-(2,6-dimethoxyphenyl)piperidin-2-one], the IC50 was found to be 14 nM on human orexin-1 receptor and 19 nM on human orexin-2 receptor.
For `COc1cccc(OC)c1C1CCCC(=O)N1Cc1cccc(-c2cscn2)c1` (stereo not shown) [Example 45, 6-(2,6-dimethoxyphenyl)-1-(3-(thiazol-4-yl)benzyl)piperidin-2-one], the IC50 was determined as 12 nM at human orexin-1 receptor and 17 nM at human orexin-2 receptor.
On to `COc1cccc(OC)c1C1CCCC(=O)N1Cc1cccc(-n2ccnn2)c1` (stereo not shown) [Example 46, 1-(3-(1H-1,2,3-triazol-1-yl)benzyl)-6-(2,6-dimethoxyphenyl)piperidin-2-one], for which the IC50 on human orexin-1 receptor amounted to 440 nM; at human orexin-2 receptor, 239 nM.
Turning to `COc1cccc(OC)c1C1CCCC(=O)N1Cc1ccc2nc(C)sc2c1` (stereo not shown) [Example 47, 6-(2,6-dimethoxyphenyl)-1-((2-methylbenzo[d]thiazol-6-yl)methyl)piperidin-2-one], the IC50 on human orexin-1 receptor came out at 187 nM; on human orexin-2 receptor, 165 nM.
The matching figures for `COc1cccc(OC)c1C1CCCC(=O)N1Cc1cc(-c2ccccn2)ccc1Cl` (stereo not shown) [Example 48, 1-(2-chloro-5-(pyridin-2-yl)benzyl)-6-(2,6-dimethoxyphenyl)piperidin-2-one]: 169 nM and 625 nM.
As to `COc1cccc(OC)c1C1CCCC(=O)N1Cc1cc(Cl)cc(-c2ccccn2)c1` (stereo not shown) [Example 49, 1-(3-chloro-5-(pyridin-2-yl)benzyl)-6-(2,6-dimethoxyphenyl)piperidin-2-one], the values for the IC50 on human orexin-1 receptor and at human orexin-2 receptor were 28 nM and 11 nM, respectively.
The matching figures for `COc1cccc(OC)c1C1CCCC(=O)N1Cc1ccnc(-c2ccccn2)c1` (stereo not shown) [Example 50, 1-([2,2′-bipyridin]-4-ylmethyl)-6-(2,6-dimethoxyphenyl)piperidin-2-one]: 39 nM and 119 nM.
`COc1cccc(OC)c1C1CCCC(=O)N1Cc1ccnc(-n2cccn2)c1` (stereo not shown) [Example 52, 1-((2-(1H-pyrazol-1-yl)pyridin-4-yl)methyl)-6-(2,6-dimethoxyphenyl)piperidin-2-one]: the IC50 on human orexin-1 receptor came out at 14 nM; on human orexin-2 receptor, 80 nM.
For `COc1ccnc(OC)c1C1CCCC(=O)N1Cc1cccc(-c2nccs2)c1` (stereo not shown) [Example 53, 6-(2,4-dimethoxypyridin-3-yl)-1-(3-(thiazol-2-yl)benzyl)piperidin-2-one], the IC50 worked out at 33 nM on human orexin-1 receptor and 22 nM at human orexin-2 receptor.
`COc1ccnc(OC)c1C1CCCC(=O)N1Cc1cccc(-c2csc(C)n2)c1` (stereo not shown) [Example 54, 6-(2,4-dimethoxypyridin-3-yl)-1-(3-(2-methylthiazol-4-yl)benzyl)piperidin-2-one]: the IC50 came out at 15 nM on human orexin-1 receptor and 13 nM at human orexin-2 receptor.
Regarding `COc1ccnc(OC)c1C1CCCC(=O)N1Cc1cccc(-c2ccccn2)c1` (stereo not shown) [Example 55, 6-(2,4-dimethoxypyridin-3-yl)-1-(3-(pyridin-2-yl)benzyl)piperidin-2-one], the results for the IC50 on human orexin-1 receptor and at human orexin-2 receptor were 96 nM and 95 nM, respectively.
Take `COc1ccnc(OC)c1C1CCCC(=O)N1Cc1csc(-c2ccccc2)n1` (stereo not shown) [Example 56, 6-(2,4-dimethoxypyridin-3-yl)-1-((2-phenylthiazol-4-yl)methyl)piperidin-2-one]: the IC50 at human orexin-1 receptor is 141 nM; at human orexin-2 receptor, 6 nM.
Take `COc1ccnc(OC)c1C1CCCC(=O)N1Cc1ccc2oc3ccccc3c2c1` (stereo not shown) [Example 57, 1-(dibenzo[b,d]furan-2-ylmethyl)-6-(2,4-dimethoxypyridin-3-yl)piperidin-2-one]: the IC50 at human orexin-1 receptor was determined as 5 nM; at human orexin-2 receptor, 3 nM.
Turning to `COc1ccnc(OC)c1C1CCCC(=O)N1Cc1ccc2nc(C)sc2c1` (stereo not shown) [Example 58, 6-(2,4-dimethoxypyridin-3-yl)-1-((2-methylbenzo[d]thiazol-6-yl)methyl)piperidin-2-one], the IC50 on human orexin-1 receptor was 2560 nM; at human orexin-2 receptor, 1530 nM.
Regarding `COc1ccnc(OC)c1C1CCCC(=O)N1Cc1ccc(F)c(-c2ccccn2)c1` (stereo not shown) [Example 59, 6-(2,4-dimethoxypyridin-3-yl)-1-(4-fluoro-3-(pyridin-2-yl)benzyl)piperidin-2-one], the IC50 on human orexin-1 receptor came to 207 nM; on human orexin-2 receptor, 135 nM.
For the molecule `COc1ccnc(OC)c1C1CCCC(=O)N1Cc1cccc(-c2ccccc2)c1` (stereo not shown) [Example 60, 1-([1,1′-biphenyl]-3-ylmethyl)-6-(2,4-dimethoxypyridin-3-yl)piperidin-2-one], the values for the IC50 at human orexin-1 receptor and on human orexin-2 receptor were 39 nM and 34 nM, respectively.
Taken in the same sequence, the figures for `COc1cncc(OC)c1C1CCCC(=O)N1Cc1cccc(-c2nccs2)c1` (stereo not shown) [Example 61, 6-(3,5-dimethoxypyridin-4-yl)-1-(3-(thiazol-2-yl)benzyl)piperidin-2-one] were 40 nM and 26 nM.
The matching figures for `COc1cncc(OC)c1C1CCCC(=O)N1Cc1cccc(-c2csc(C)n2)c1` (stereo not shown) [Example 62, 6-(3,5-dimethoxypyridin-4-yl)-1-(3-(2-methylthiazol-4-yl)benzyl)piperidin-2-one]: 25 nM and 33 nM.
With `COc1cncc(OC)c1C1CCCC(=O)N1Cc1cccc(-c2ccccn2)c1` (stereo not shown) [Example 63, 6-(3,5-dimethoxypyridin-4-yl)-1-(3-(pyridin-2-yl)benzyl)piperidin-2-one], the IC50 at human orexin-1 receptor is 135 nM; at human orexin-2 receptor, 90 nM.
The matching figures for `COc1cncc(OC)c1C1CCCC(=O)N1Cc1csc(-c2ccccc2)n1` (stereo not shown) [Example 64, 6-(3,5-dimethoxypyridin-4-yl)-1-((2-phenylthiazol-4-yl)methyl)piperidin-2-one]: 618 nM and 246 nM.
